Reference: patent US20250195521A1 (Revolution Medicines, Inc., priority 2020, published 2025)

What was measured:
[1] = test system: NCI-H358 cells (K-Ras G12C); assay: CellTiter-Glo cell viability, NCI-H358; format: cell-based, human; conditions: Homo sapiens, NCI-H358, 120 h, K-Ras G12C, 5-day treatment; read-out: H358 Cell Viability IC50
How it was run: (§1)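 Viability read by luminescence on day 5 after direct compound addition to cells, following ~30 min room-temperature equilibration. Values expressed as percent of mean DMSO signal, curves fitted with a four-parameter logistic model.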

[2] = test system: Capan-1 cells (K-Ras G12V); assay: CellTiter-Glo cell viability, Capan-1; format: cell-based, human; conditions: Homo sapiens, CAPAN-1, 120 h, K-Ras G12V, 5-day treatment; read-out: Capan-1 Cell Viability IC50
How it was run: as §1

KRAS G12C = KRAS G12C (Homo sapiens (Human), UniProt P01116+P62937, G12C); assay: Ras-Raf disruption/FRET/MOA assay (BRAF RBD, Cyclophilin A); format: biochemical; conditions: read-out: KRAS G12C FRET IC50
Chain of KRAS G12C (P01116-2 other isoform, or with tags, fused parts or gaps G12C): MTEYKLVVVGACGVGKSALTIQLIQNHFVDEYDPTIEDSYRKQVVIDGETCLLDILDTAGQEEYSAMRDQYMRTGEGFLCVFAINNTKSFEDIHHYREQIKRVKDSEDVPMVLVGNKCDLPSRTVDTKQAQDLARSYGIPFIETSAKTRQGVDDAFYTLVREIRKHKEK
Chain of KRAS G12C (P62937 whole entry): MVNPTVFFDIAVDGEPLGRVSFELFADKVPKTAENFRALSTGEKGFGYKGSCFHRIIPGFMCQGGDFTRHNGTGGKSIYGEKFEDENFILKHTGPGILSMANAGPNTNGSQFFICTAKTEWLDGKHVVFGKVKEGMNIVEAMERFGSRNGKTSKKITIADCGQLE
How it was run: (§2)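 TR-FRET read after 1.5 h with 10 nM anti-His Eu-W1024 and 50 nM anti-GST APC, following 3 h at 25 °C of GMPPNP-loaded His6-Ras (12.5 nM), GST-BRAF RBD (50 nM) and Cyclophilin A (25 μM) with compound from 30 μM final, 10 points, 3-fold. IC50 reported; pH 7.3 HEPES, 100 mM NaCl.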

KRAS G12D = KRAS G12D (Homo sapiens (Human), UniProt P01116+P62937, G12D); assay: as above; format: biochemical; conditions: read-out: KRAS G12D FRET IC50
Chain of KRAS G12D (P01116 other isoform, or with tags, fused parts or gaps G12D): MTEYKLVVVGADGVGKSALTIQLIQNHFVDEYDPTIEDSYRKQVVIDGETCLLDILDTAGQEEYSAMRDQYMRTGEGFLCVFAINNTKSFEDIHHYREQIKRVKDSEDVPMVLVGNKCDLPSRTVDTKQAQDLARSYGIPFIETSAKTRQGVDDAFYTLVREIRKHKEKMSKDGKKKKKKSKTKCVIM
Chain of KRAS G12D (P62937 whole entry): as the sequence (P62937 whole entry) above
How it was run: as §2

KRAS G12S = KRAS G12S (Homo sapiens (Human), UniProt P01116+P62937, G12S); assay: as above; format: biochemical; conditions: read-out: KRAS G12S FRET IC50
Chain of KRAS G12S (P01116 other isoform, or with tags, fused parts or gaps G12S): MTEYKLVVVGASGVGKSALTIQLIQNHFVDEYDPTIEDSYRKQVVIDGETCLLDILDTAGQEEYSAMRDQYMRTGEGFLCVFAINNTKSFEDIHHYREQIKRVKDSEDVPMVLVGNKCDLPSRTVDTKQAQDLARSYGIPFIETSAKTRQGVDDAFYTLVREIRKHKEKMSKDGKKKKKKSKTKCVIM
Chain of KRAS G12S (P62937 whole entry): as the sequence (P62937 whole entry) above
How it was run: as §2

KRAS G12V = KRAS G12V (Homo sapiens (Human), UniProt P01116+P62937, G12V); assay: as above; format: biochemical; conditions: read-out: KRAS G12V FRET IC50
Chain of KRAS G12V (P01116 other isoform, or with tags, fused parts or gaps G12V): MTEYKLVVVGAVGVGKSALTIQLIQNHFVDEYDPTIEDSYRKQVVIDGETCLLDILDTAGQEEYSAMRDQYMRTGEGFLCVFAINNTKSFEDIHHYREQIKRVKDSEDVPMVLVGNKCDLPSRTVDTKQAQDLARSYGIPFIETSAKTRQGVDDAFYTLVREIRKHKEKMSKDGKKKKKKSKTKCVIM
Chain of KRAS G12V (P62937 whole entry): as the sequence (P62937 whole entry) above
How it was run: as §2

KRAS G13C = KRAS G13C (Homo sapiens (Human), UniProt P01116+P62937, G13C); assay: as above; format: biochemical; conditions: read-out: KRAS G13C FRET IC50
Chain of KRAS G13C (P01116 other isoform, or with tags, fused parts or gaps G13C): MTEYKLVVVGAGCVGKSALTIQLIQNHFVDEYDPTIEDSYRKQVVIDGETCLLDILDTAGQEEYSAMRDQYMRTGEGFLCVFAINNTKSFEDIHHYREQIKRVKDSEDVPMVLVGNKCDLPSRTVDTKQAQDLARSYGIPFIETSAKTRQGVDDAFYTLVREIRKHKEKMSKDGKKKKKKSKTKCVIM
Chain of KRAS G13C (P62937 whole entry): as the sequence (P62937 whole entry) above
How it was run: as §2

KRAS G13D = KRAS G13D (Homo sapiens (Human), UniProt P01116+P62937, G13D); assay: as above; format: biochemical; conditions: read-out: KRAS G13D FRET data IC50
Chain of KRAS G13D (P01116 other isoform, or with tags, fused parts or gaps G13D): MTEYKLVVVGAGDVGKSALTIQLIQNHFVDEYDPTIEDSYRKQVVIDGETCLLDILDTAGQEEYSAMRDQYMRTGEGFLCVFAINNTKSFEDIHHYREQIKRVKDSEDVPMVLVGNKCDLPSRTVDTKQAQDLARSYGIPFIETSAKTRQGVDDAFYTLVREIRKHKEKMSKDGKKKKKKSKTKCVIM
Chain of KRAS G13D (P62937 whole entry): as the sequence (P62937 whole entry) above
How it was run: as §2

KRAS Q61H = KRAS Q61H (Homo sapiens (Human), UniProt P01116+P62937, Q61H); assay: as above; format: biochemical
Chain of KRAS Q61H (P01116 other isoform, or with tags, fused parts or gaps Q61H): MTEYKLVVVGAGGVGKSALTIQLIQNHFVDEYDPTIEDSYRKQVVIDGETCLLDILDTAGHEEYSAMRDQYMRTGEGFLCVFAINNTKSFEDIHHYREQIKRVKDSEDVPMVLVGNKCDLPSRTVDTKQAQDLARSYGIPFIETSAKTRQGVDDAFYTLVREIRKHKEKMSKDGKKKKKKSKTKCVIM
Chain of KRAS Q61H (P62937 whole entry): as the sequence (P62937 whole entry) above
How it was run: as §2

KRAS WT = KRAS WT (Homo sapiens (Human), UniProt P01116+P62937); assay: as above; format: biochemical; conditions: read-out: KRAS WT FRET data IC50
Chain of KRAS WT (P01116 other isoform, or with tags, fused parts or gaps): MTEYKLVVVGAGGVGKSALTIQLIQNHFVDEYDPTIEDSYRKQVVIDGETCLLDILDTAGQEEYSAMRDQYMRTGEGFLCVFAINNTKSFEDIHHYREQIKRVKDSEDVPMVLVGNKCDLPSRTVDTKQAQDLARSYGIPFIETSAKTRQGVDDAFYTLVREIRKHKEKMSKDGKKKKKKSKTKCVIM
Chain of KRAS WT (P62937 whole entry): as the sequence (P62937 whole entry) above
How it was run: as §2

NRAS G12C = NRAS G12C (Homo sapiens (Human), UniProt P01111+P62937, G12C); assay: as above; format: biochemical; conditions: read-out: NRAS G12C FRET data IC50
Chain of NRAS G12C (P01111 whole entry G12C): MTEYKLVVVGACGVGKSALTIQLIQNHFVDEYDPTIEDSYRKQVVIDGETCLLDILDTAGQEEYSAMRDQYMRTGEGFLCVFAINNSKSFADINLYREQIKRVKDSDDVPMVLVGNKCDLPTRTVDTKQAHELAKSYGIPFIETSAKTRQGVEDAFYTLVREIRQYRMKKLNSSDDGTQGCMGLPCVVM
Chain of NRAS G12C (P62937 whole entry): as the sequence (P62937 whole entry) above
How it was run: (§3)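 Measured: compound-facilitated Cyclophilin A:Ras complex blocking RAF RBD binding. Conditions: 12.5 nM Ras-GMPPNP, 50 nM BRAF RBD, 25 μM CypA, 3 h plus 1.5 h detection. Output: IC50 from TR-FRET ratio.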

NRAS Q61K = NRAS Q61K (Homo sapiens (Human), UniProt P01111+P62937, Q61K); assay: as above; format: biochemical
Chain of NRAS Q61K (P01111 whole entry Q61K): as the sequence (P01111 whole entry G12C) above, with C12G, Q61K counted along it
Chain of NRAS Q61K (P62937 whole entry): as the sequence (P62937 whole entry) above
How it was run: as §3

NRAS Q61R = NRAS Q61R (Homo sapiens (Human), UniProt P01111+P62937, Q61R); assay: as above; format: biochemical
Chain of NRAS Q61R (P01111 whole entry Q61R): as the sequence (P01111 whole entry G12C) above, with C12G, Q61R counted along it
Chain of NRAS Q61R (P62937 whole entry): as the sequence (P62937 whole entry) above
How it was run: as §3

NRAS WT = NRAS WT (Homo sapiens (Human), UniProt P01111+P62937); assay: as above; format: biochemical
Chain of NRAS WT (P01111 whole entry): as the sequence (P01111 whole entry G12C) above, with C12G counted along it
Chain of NRAS WT (P62937 whole entry): as the sequence (P62937 whole entry) above
How it was run: as §3

| Compound | IC50 [1] | IC50 [2] | IC50 (KRAS G12C) | IC50 (KRAS G12D) | IC50 (KRAS G12S) | IC50 (KRAS G12V) | IC50 (KRAS G13C) | IC50 (KRAS G13D) | IC50 (KRAS Q61H) | IC50 (KRAS WT) | IC50 (NRAS G12C) | IC50 (NRAS Q61K) | IC50 (NRAS Q61R) | IC50 (NRAS WT) |
| --- | --- | --- | --- | --- | --- | --- | --- | --- | --- | --- | --- | --- | --- | --- |
| CCn1c(-c2cccnc2[C@H](C)OC)c2c3cc(ccc31)-c1csc(n1)C[C@H](NC(=O)[C@H](C(C)C)N(C)C(=O)N1[C@H](C)COC[C@@H]1C)C(=O)N1CCC[C@H](N1)C(=O)OCC(C)(C)C2 [Compound A276] | 0.1 to 1 µM | 0.1 to 1 µM | 0.1 to 1 µM | 1 to 10 µM | 0.1 to 1 µM | 1 to 10 µM | 0.1 to 1 µM | 1 to 10 µM | 0.1 to 1 µM | 0.1 to 1 µM | 0.1 to 1 µM | 0.1 to 1 µM | 0.1 to 1 µM | 0.1 to 1 µM |
| CCn1c(-c2cccnc2[C@H](C)OC)c2c3cc(ccc31)-c1csc(n1)C[C@H](NC(=O)[C@H](C(C)C)N(C)C(=O)N1CCS(=O)(=O)CC1)C(=O)N1CCC[C@H](N1)C(=O)OCC(C)(C)C2 [Compound A357] | 0.01 to 0.1 µM | 0.01 to 0.1 µM | 0.1 to 1 µM | 1 to 10 µM | 0.1 to 1 µM | 0.1 to 1 µM | 0.1 to 1 µM | 0.1 to 1 µM | 0.1 to 1 µM | 0.1 to 1 µM | 0.01 to 0.1 µM | 0.1 to 1 µM | 0.1 to 1 µM | 0.1 to 1 µM |
| CCn1c(-c2cccnc2[C@H](C)OC)c2c3cc(ccc31)-c1csc(n1)C[C@H](NC(=O)[C@H](C(C)C)N(C)C(=O)[C@@H]1[C@@H]3CN(C)C[C@@H]31)C(=O)N1CCC[C@H](N1)C(=O)OCC(C)(C)C2 [Compound A447] | 0.1 to 1 µM | 0.1 to 1 µM | 0.1 to 1 µM | 0.1 to 1 µM | 0.1 to 1 µM | 1 to 10 µM | 0.1 to 1 µM | 0.1 to 1 µM | 0.1 to 1 µM | 0.1 to 1 µM | 0.1 to 1 µM | 0.1 to 1 µM | 1 to 10 µM | 0.1 to 1 µM |
| CCn1c(-c2cccnc2[C@H](C)OC)c2c3cc(ccc31)-c1csc(n1)C[C@H](NC(=O)[C@H](C(C)C)N(C)C(=O)N1CC[C@@]3(CCNC3=O)C1)C(=O)N1CCC[C@H](N1)C(=O)OCC(C)(C)C2 [Compound A480] | 0.1 to 1 µM | 0.1 to 1 µM | 0.1 to 1 µM | 1 to 10 µM | 0.1 to 1 µM | 0.1 to 1 µM | 0.1 to 1 µM | 0.1 to 1 µM | 0.01 to 0.1 µM | 0.1 to 1 µM | 0.1 to 1 µM | 0.1 to 1 µM | 0.1 to 1 µM | 0.1 to 1 µM |
| CCn1c(-c2cccnc2[C@H](C)OC)c2c3cc(ccc31)-c1cc(CF)cc(c1)C[C@H](NC(=O)[C@H](C(C)C)N(C)C(=O)[C@@H]1OCC[C@@H]1c1ccccc1)C(=O)N1CCC[C@H](N1)C(=O)OCC(C)(C)C2 [Compound A509] | 0.01 to 0.1 µM | 0.01 to 0.1 µM | 0.01 to 0.1 µM | 0.1 to 1 µM | 0.1 to 1 µM | 0.1 to 1 µM | 0.01 to 0.1 µM | 0.1 to 1 µM | 0.01 to 0.1 µM | 0.1 to 1 µM | 0.01 to 0.1 µM | 0.1 to 1 µM | 0.1 to 1 µM | 0.1 to 1 µM |
| CCn1c(-c2cccnc2[C@H](C)OC)c2c3cc(ccc31)-c1csc(n1)C[C@H](NC(=O)[C@H](C(C)C)N(C)C(=O)N1CC3(CCOCC3)C1)C(=O)N1CCC[C@H](N1)C(=O)OCC(C)(C)C2 [Compound A521] | 0.01 to 0.1 µM | 0.01 to 0.1 µM | 0.1 to 1 µM | 1 to 10 µM | 0.1 to 1 µM | 0.1 to 1 µM | 0.1 to 1 µM | 1 to 10 µM | 0.1 to 1 µM | 0.1 to 1 µM | 0.1 to 1 µM | 0.1 to 1 µM | 0.1 to 1 µM | 0.1 to 1 µM |
| CCn1c(-c2cccnc2[C@H](C)OC)c2c3cc(ccc31)-c1csc(n1)C[C@H](NC(=O)[C@H](C(C)C)N(C)C(=O)N1CC(O)(COC)C1)C(=O)N1CCC[C@H](N1)C(=O)OCC(C)(C)C2 [Compound A553] | 0.01 to 0.1 µM | 0.1 to 1 µM | 0.1 to 1 µM | 1 to 10 µM | 1 to 10 µM | 0.1 to 1 µM | 0.1 to 1 µM | 1 to 10 µM | 0.1 to 1 µM | 0.1 to 1 µM | 0.1 to 1 µM | 0.1 to 1 µM | 0.1 to 1 µM | 0.1 to 1 µM |
| CCn1c(-c2cccnc2[C@H](C)OC)c2c3cc(ccc31)-c1cc(O)cc(c1)C[C@H](NC(=O)[C@H](C(C)C)N(C)C(=O)[C@H]1C[C@H]1O)C(=O)N1CCC[C@H](N1)C(=O)OCC(C)(C)C2 [Compound A554] | 0.1 to 1 µM | 1 to 10 µM | 0.01 to 0.1 µM | 0.1 to 1 µM | 0.01 to 0.1 µM | 0.01 to 0.1 µM | 0.01 to 0.1 µM | 0.1 to 1 µM | 0.01 to 0.1 µM | 0.01 to 0.1 µM | 0.01 to 0.1 µM | 0.1 to 1 µM | 0.1 to 1 µM | 0.01 to 0.1 µM |
| CCn1c(-c2cccnc2[C@H](C)OC)c2c3cc(ccc31)-c1csc(n1)C[C@H](NC(=O)[C@H](C(C)C)N1CCC3(COC3)C1)C(=O)N1CCC[C@H](N1)C(=O)OCC(C)(C)C2 [Compound A561] | < 0.01 µM | 0.01 to 0.1 µM | 0.01 to 0.1 µM | 0.1 to 1 µM | 0.01 to 0.1 µM | 0.1 to 1 µM | 0.1 to 1 µM | 0.1 to 1 µM | 0.01 to 0.1 µM | 0.01 to 0.1 µM | 0.01 to 0.1 µM | 0.01 to 0.1 µM | 0.01 to 0.1 µM | 0.01 to 0.1 µM |
| CCn1c(-c2cccnc2[C@H](C)OC)c2c3cc(ccc31)-c1csc(n1)C[C@H](NC(=O)[C@H](C(C)C)N(C)C(=O)N(C)[C@@H]1CCN(C)C1)C(=O)N1CCC[C@H](N1)C(=O)OCC(C)(C)C2 [Compound A564] | 0.01 to 0.1 µM | 0.1 to 1 µM | 0.1 to 1 µM | 0.1 to 1 µM | 0.1 to 1 µM | 0.1 to 1 µM | 0.1 to 1 µM | 0.1 to 1 µM | 0.01 to 0.1 µM | 0.1 to 1 µM | 0.1 to 1 µM | 0.1 to 1 µM | 0.1 to 1 µM | 0.1 to 1 µM |
